Values of other authors, collected in patent US10744140B2, “Synergistic nutraceutical beverage formulations providing enhanced thermogenesis, mental clarity, and stamina while minimizing adrenaline and dopamine concentration perturbations associated with withdrawal” (Power Supplements, LLC., priority 2016, dated 2020).
Values belong to the compound of their own block, whether it stands above or below them.

Tests used:
rhesus monkey TAAR1 = target: T1, rhesus monkey TAAR1 (Macaca mulatta, UniProt Q8HZ64); details: HEK293 cells transfected with rhesus monkey TAAR1, CRE-Luc reporter
T1 construct: expressed in transfected cells; host or cells: HEK293 (transient, with CRE-Luc and pGL4.73 reporters)
T1 sequence (Q8HZ64 1-338): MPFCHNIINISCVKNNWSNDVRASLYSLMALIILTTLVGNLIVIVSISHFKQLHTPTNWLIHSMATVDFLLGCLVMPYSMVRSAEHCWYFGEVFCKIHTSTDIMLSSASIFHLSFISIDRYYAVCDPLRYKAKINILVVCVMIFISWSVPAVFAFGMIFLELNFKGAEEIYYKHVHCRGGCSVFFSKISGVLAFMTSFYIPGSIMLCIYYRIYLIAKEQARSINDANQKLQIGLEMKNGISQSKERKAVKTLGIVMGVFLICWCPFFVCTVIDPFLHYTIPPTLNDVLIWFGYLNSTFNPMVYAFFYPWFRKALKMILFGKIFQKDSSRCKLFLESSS

[1] = target: T2, rat trace amine receptor (rTAR1) (Rattus norvegicus, UniProt Q923Y9); details: 1 μM, HEK 293 cells
T2 construct: expressed in transfected cells; host or cells: HEK 293

primate brain = details: acute administration
humans = details: higher of two single doses (100 mg, 250 mg)
young females = details: 50 mg, two months
[2] = system: SERT (serotonin transporter); details: cells expressing TAAR1 and SERT
[3] = system: DAT (dopamine transporter); details: cells expressing TAAR1 and DAT
[4] = system: NET (norepinephrine transporter); details: cells expressing TAAR1 and NET

T2 sequence (Q923Y9 whole entry): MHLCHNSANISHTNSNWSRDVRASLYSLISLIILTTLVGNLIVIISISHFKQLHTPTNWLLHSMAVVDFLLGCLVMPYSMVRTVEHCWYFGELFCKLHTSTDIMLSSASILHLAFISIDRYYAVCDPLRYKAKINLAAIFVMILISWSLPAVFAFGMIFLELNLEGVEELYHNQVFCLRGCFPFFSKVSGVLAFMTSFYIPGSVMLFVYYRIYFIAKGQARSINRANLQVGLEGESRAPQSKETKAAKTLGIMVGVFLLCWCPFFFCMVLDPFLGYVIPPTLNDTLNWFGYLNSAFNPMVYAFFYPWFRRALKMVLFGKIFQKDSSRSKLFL

- TAAR1 activation (cAMP production) (rhesus monkey TAAR1): activates TAAR1
- potency in stimulating cAMP production through the rTAR1 [1]: slightly higher than that of hordenine
SMILES: NCCc1ccc(O)cc1 [tyramine]

SMILES: NCCc1c[nH]c2ccccc12 [TRY, tryptamine]
- TAAR1 activation (cAMP production) (rhesus monkey TAAR1): activates TAAR1

SMILES: Cc1ncc(CO)c(CO)c1O [vitamin B6, pyridoxine]
- serotonin synthesis in the brain (primate brain): increased serotonin synthesis
- dream salience (humans): increase in dream salience

SMILES: Cc1ncc(C[n+]2csc(CCO)c2C)c(N)n1 [thiamine]
- attention (decision times in choice reaction time tasks) (young females): improved attention
- mood (Profile of Mood States) (young females): improved mood

SMILES: NCCc1ccccc1 [β-PEA, 2-phenylethylamine]
- TAAR1 activation (cAMP production) (rhesus monkey TAAR1): activates TAAR1
- uptake of serotonin by its transporter [2]: reduces the uptake of the monoamines
- uptake of dopamine by its transporter [3]: reduces the uptake of the monoamines
- uptake of norepinephrine by its transporter [4]: reduces the uptake of the monoamines

- TAAR1 activation (cAMP production) (rhesus monkey TAAR1): activates TAAR1
SMILES: NCC(O)c1ccc(O)cc1 (stereo not shown) [OCT, octopamine]

SMILES: CN(C)CCc1ccc(O)cc1 [hordenine, N,N-dimethyltyramine]
- potency in stimulating cAMP production through the rTAR1 [1]: almost identical potency to that of the same concentration of β-phenethylamine
- heart rate (horses; 2 mg/kg intravenous (IV)): doubled
- increase of the rate of respiration (horses; 2 mg/kg intravenous (IV)): 250%
- respiratory distress (horses; 2 mg/kg intravenous (IV)): substantial respiratory distress
- time until all effects disappeared (horses; 2 mg/kg intravenous (IV)): ≤ 30 min
- effects after oral dosing (horses; same dose (2 mg/kg) given orally): did not produce any of the effects seen after parenteral administration
- blood pressure (dogs and rats): increased systolic and diastolic blood pressure
- effect on the heart (strength of contraction) (dogs and rats): positive inotropic effect on the heart
- movements of the gut (dogs and rats): inhibited
- peripheral blood flow (dogs and rats): increased the volume of peripheral blood flow
